Columns and labels:
[1] = test system: FosB splice variants (FosB and ΔFosB mRNA); assay: FosB splice variant mRNA levels in blood of MPTP-treated (Parkinsonian) mice, RT-PCR; assay type: in vivo, mouse; conditions: vs vehicle
Description: (§1) Mice were then euthanized either at 3 days or 3 weeks after treatment. Two time periods were selected in order to characterizing splicing events in the blood over time. Controls for the acute group include mice treated with saline and, for the chronic experiments, mice treated with probenecid or saline.
(§2) Blood specimens for assaying RNA from the mice described in Example 1 above were obtained as follows. Mice were sacrificed by cervical dislocation and the heart lacerated to release the blood. Approximately 50 μl of 0.05 M EDTA, pH 8.0 was added to the chest cavity to prevent the blood from coagulating. Blood was collected in a sterile 1 ml syringe that was initially rinsed in 0.50 M EDTA pH 8.0.
(§3) RNA from blood samples obtained as described in Example 2 was separated on a 1.8% agarose gel and stained with 5 μl of ethidium bromide (10 mg/ml stock) diluted into 10 ml of a TAE buffer (pH 8.5 40 mM Tris.acetate, 2 mM Na2EDTA.2H2O. After staining, the RNA was visualized on a UV light box and the 18S RNA band was quantified. The image was captured using a Kodak EDAS290 system (Kodak, Rochester, N.Y.) and the Kodak 1D Image Analysis software (Kodak, Rochester, N.Y.) was used to quantify. Other similar cameras and analysis softwares will also work. […]

[2] = test system: NDUFS4 splice variants (NDUFS4 and NDUFS4-SV3 mRNA); assay: NDUFS4 splice variant mRNA levels in MPTP-treated mice, RT-PCR; assay type: in vivo, mouse; conditions: chronic MPTP treatment
Description: as §1, §2
(§4) RNA from blood samples obtained as described in Example 2 was separated on a 1.8% agarose gel and stained with 5 μl of ethidium bromide (10 mg/ml stock) diluted into 10 ml of a TAE buffer (pH 8.5 40 mM Tris.acetate, 2 mM Na2EDTA.2H2O. After staining, the RNA was visualized on a UV light box and the 18S RNA band was quantified. The image was captured using a Kodak EDAS290 system (Kodak, Rochester, N.Y.) and the Kodak 1D Image Analysis software (Kodak, Rochester, N.Y.) was used to quantify. Other similar cameras and analysis softwares will also work.
(§5) Splice variant mRNA was assayed using reverse transcriptase polymerase chain reactions (RT-PCR) as described in U.S. patent application Ser. No.: 11/215,842. PCR conditions for amplification of FosB, RGS9, AchE, Ania6 and NDUFS4 are the same as disclosed in U.S. patent application Ser. No.: 11/215,842 except different kits were used for FosB and RGS9 compared to the other 3 transcripts.
• 1. 95° C. 8 minutes • 2. 95° C. 30 seconds • 3. 57° C. 30 seconds • 4. 72° C. 30 seconds • 5. Repeat from step 2 35 times • 6. 72° C. 10 minutes RGS9 (SYBR green, Applied Biosystems, Foster City, Calif.) • 1. 95° C. 8 minutes • 2. 95° C. 30 seconds • 3. 54° C. 30 seconds • 4. 72° C. 30 seconds • 5. Repeat from step 2 35 times • 6. 72° C. 10 minutes AChE (go Taq Green, Promega, Madison, Wis.) • 1. 95° C. 5 minutes • 2. 95° C. 30 seconds • 3. 61° C. 30 seconds • 4. 72° C. […]

[3] = test system: AChE splice variants (AChE-R and AChE-S mRNA); assay: AChE splice variant mRNA levels in blood of MPTP-treated mice, RT-PCR; assay type: in vivo, mouse
Description: as §1, §2, §4, §5
• 1. 95° C. 8 minutes • 2. 95° C. 30 seconds • 3. 57° C. 30 seconds • 4. 72° C. 30 seconds • 5. Repeat from step 2 35 times • 6. 72° C. 10 minutes RGS9 (SYBR green, Applied Biosystems, Foster City, Calif.) • 1. 95° C. 8 minutes • 2. 95° C. 30 seconds • 3. 54° C. 30 seconds • 4. 72° C. 30 seconds • 5. Repeat from step 2 35 times • 6. 72° C. 10 minutes AChE (go Taq Green, Promega, Madison, Wis.) • 1. 95° C. 5 minutes • 2. 95° C. 30 seconds • 3. 61° C. 30 seconds • 4. 72° C. 30 seconds • 5. Repeat from step 2 30 times • 6. 72° C. 5 minutes NDUFS4 (go Taq Green, Promega, Madison, Wis.) • 1. 95° C. 5 minutes • 2. 95° C. 30 seconds • 3. 64° C. 30 seconds • 4. 72° C. 30 seconds • 5. Repeat from step 2 30 times • 6. 72° C. 5 minutes Ania (go Taq Green, Promega, Madison, Wis. • 1. 95° C. 5 minutes • 2. 95° C. 30 seconds • 3. 57° C. 30 seconds • 4. 72° C. 30 seconds • 5. Repeat from step 2 35 times • 6. 72° C. 5 minutes Primers used in the PCR Assays: […]
We investigated whether the amount of the splice variants of acetylcholinesterase (AChE) changed after MPTP toxin treatment. AChE hydrolyzes acetylcholine (ACh) and thereby functions to terminate Ach-mediated neurotransmission. In many neuropathologies, the characteristics of AChE are modified in the central nervous system. We looked at the AChE-S and ACHE-R splice variants. The AChE-S mRNA produces the canonical synaptic tetrameric form of the enzyme. AChE-S is formed by skipping exon 5 such that the final mRNA is composed of exons 1-4 and exon 6 (FIG. 5). The protein produced from this transcript has a cysteine-containing carboxyl-terminus that allows for the formation of the tetramer. AChE-R, produces a read-through transcript in which a downstream splice donor is spliced to the intron 4 3′ splice site such that exon 5 is included in the mRNA (FIG. 6). This produces a protein with a different carboxyl-terminus than the synaptic form. […]

[4] = test system: RGS9 splice variants (RGS9-1 and RGS9-2 mRNA); assay: RGS9 splice variant mRNA levels in blood of MPTP-treated mice, RT-PCR; assay type: in vivo, mouse
Description: as §1, §2, §3

[5] = test system: transcripts that have splice variants; conditions: mptp study, cited from earlier work
[6] = test system: Ania6 splice variants (Ania6 and Ania6a mRNA); assay: Ania6 splice variant mRNA levels in blood of MPTP-treated mice, RT-PCR; assay type: in vivo, mouse; conditions: chronic MPTP treatment
Description: as §1, §2, §3

[7] = chronic MPTP treatment, 3 days and 3 weeks after

In the case of CN1CC=C(c2ccccc2)CC1 [MPTP, 1-methyl-4-phenyl-1,2,3,6-tetrahydropyridine], the “FosB mRNA/18S RNA” value ([1]; acute MPTP treatment (20 mg/kg, 4 times, every 2 hours), euthanized 3 days later) is reported as “decreases”, the “ΔFosB mRNA/18S RNA” value ([1]; chronic MPTP (25 mg/kg s.c.) and probenecid, twice each week for 5 weeks) is reported as “decreases” and the “NDUFS4 mRNA/18S RNA” value [2] is reported as “decreases”. The “NDUFS4-SV3 mRNA/18S RNA” value ([2]; 3 days and 3 weeks after) was “decreases after chronic MPTP treatment and remains lower for 3 weeks”, the “NDUFS4-SV3 mRNA/NDUFS4 mRNA” value ([2]; 3 days and 3 weeks after) was “decreases after chronic MPTP treatment and remains lower for 3 weeks” and the “AChE-R mRNA/18S RNA” value ([3]; acute MPTP treatment) was “increases”. The “AChE-R mRNA/AChE-S mRNA” value ([3]; acute MPTP treatment) was “increases”, the “AChE-R mRNA/AChE-S mRNA” value ([3]; chronic MPTP treatment) was “decreases” and the “AChE-S mRNA/18S RNA” value ([3]; chronic MPTP treatment) was “increases”. The “AChE-R mRNA/18S RNA” value [3, 7] was “decreases and remains lower for 3 weeks”, the “RGS9-2 mRNA/18S RNA” value ([4]; acute MPTP treatment) was “decreases” and the “RGS9-2 mRNA/RGS9-1” value [4, 7] was “decreases after chronic MPTP treatment and remains lower for 3 weeks”. The “Change of BAX M, isoform-a transcript” value ([5]; function Apoptosis) was “Up”, the “Change of Cyclin B2 transcript” value ([5]; function Cell cycle) was “Down” and the “Change of Alpha-synuclein transcript” value ([5]; function PD-associated) was “Up”. For the same compound, the “Change of Ach N receptor transcript” value ([5]; function Receptors) was “Up”, the “Change of IL-1 recept II transcript” value ([5]; function Receptors) was “Up” and the “Change of IL-2 rp-G transcript” value ([5]; function Receptors) was “Up”. The “Change of IL-10 transcript” value ([5]; function Receptors) was “Up”, the “Change of Gtase transcript” value ([5]; function Stress) was “Down” and the “Ania6a mRNA/18S RNA” value [6] was “increases”. For the same compound, the “Ania6 mRNA/18S RNA” value ([6]; 3 days and 3 weeks after) was “decreases after chronic MPTP treatment and remains lower for 3 weeks”.

Source: patent US20070087376A1, “Splice variants of pre-mRNA transcripts as biomarkers in idiopathic neurodegenerative diseases” (priority 2004, published 2007)
